Tests used:
[1] = dynamic heat stability (rolling stability) in polyvinyl chloride; conditions: 180° C, 20 rpm, 0.5 part phosphite per 100 parts PVC
Experimental: Each time 100 parts of a mass polyvinyl chloride having a K value of 60 were intimately mixed with
0.2 part of 2-phenyl-indole,
3.0 parts of epoxidized soybean oil
0.3 part of stearyl stearate
0.5 part of glycerol monostearate and
0.5 part each of respective phosphite of the invention.
To measure the dynamic heat stability (rolling stability) the mixtures were rolled on a two roll mill at 180° C. and with 20 revolutions per minute. At intervals of 10 minutes samples were taken from the rough sheet and the color of the samples was compared with the colors of a proper color chart. Rolling was continued until the rough sheet had turned black.
In the color chart used the individual notes have the following meaning: […]

[2] = stability to hydrolysis (boiling in deionized water, titration of liberated phosphorous acid); assay type: physicochemical; conditions: for degree of hydrolysis after 60 minutes: 1 h
Experimental: The stability to hydrolysis was tested according to the process disclosed in DT-OS 2,144,181, pages 7/8. 5.0 g each of the respective phosphite were boiled for 20 and 60 minutes in 100 ml of deionized water. The mixture was then allowed to cool, it was filtered to remove residues, if any, and in the filtrate the liberated phosphorous acid was titrated with 0.1N KOH against bromophenol blue.
In the following table is indicated the degree of hydrolysis determined under the specified conditions as quotient of the actual consumption of KOH and the theoretically possible consumption with a complete hydrolysis.

[3] = acute toxicity in male albino mice, per os; assay type: in vivo
Experimental: To test the acute toxicities of the compounds of the invention male albino mice were fed as prescribed in the book "Grundlagen der experimentellen Arzneimittelforschung" by Leopold Ther, addition 1965.
The phosphite to be tested was administered per os, suspended in aqueous methyl cellulose (Tylose^R) solution, to groups of 5 test animals each, the doses being 1,000, 2,000, and 5,000 mg/kg of body weight.

| Compound | degree of hydrolysis after 20 minutes [2] | degree of hydrolysis after 60 minutes [2] | also measured |
| --- | --- | --- | --- |
| CCCCCCCCCCCCCCCCCCOP1OCC2(CO1)COP(OCCCCCCCCCCCCCCCCCC)OC2 (stereo not drawn) [distearyl-pentaerythrityl-diphosphite] |  |  | dynamic (rolling) stability, discoloration of rough sheet after a rolling time of 40' ([1]; 40'): 4; dynamic (rolling) stability, discoloration of rough sheet after a rolling time of 50' ([1]; 50'): 5 |
| Di-(β-hydroxy-triacontyl)-sorbityl-diphosphite [Example 2] | 22.5 % of theory |  | toxicity assessment ([3]; acute): practically innocuous; deaths at the highest dosage ([3]; per os, highest dose 5,000 mg/kg of body weight): no animal died |
| Tri-(β-hydroxy-triacontyl)-sorbityl-triphosphite [Example 1] | 1.8 % of theory | 2.4 % of theory |  |

The next lines start with results.

| degree of hydrolysis after 20 minutes [2] | degree of hydrolysis after 60 minutes [2] | Compound | also measured |
| --- | --- | --- | --- |
| 1.0 % of theory | 2.0 % of theory | Di-(β-hydroxy-eicosyl)-mono-thiododecyl-mannityl-triphosphite [Example 5] |  |
| 21.0 % of theory |  | Di-(β-hydroxy-triacontyl)-mannityl-diphosphite [Example 3] |  |
| 1.5 % of theory | 3.6 % of theory | Di-(β-hydroxy-triacontyl)-mono-thiododecyl-sorbityl-triphosphite [Example 4] |  |
